{
  "source": "patent US6300519A",
  "about": "“Antivirally active heterocyclic azahexane derivatives” (Novartis Finance Corporation, priority 1996, dated 2001)",
  "key": {"[1]": {"system": "resistant variant (45I,76F strain)", "source_text": "(§1) By way of PCR-supported mutagenesis and cloning, HIV-1 protease mutants are generated that are based on the infectious clone pNL4-3 (freely available via the \"NIH AIDS reference and reagent program\", the original reference is A. Adachi et al. J. Virol (1986) 59, 284-91--but it can, of course, be any other HIV clone, or even clinical material, provided that comparability is ensured). […] The cloned fragments are, for example, only 500 base pairs in length, all of the remainder being unchanged. By using mutations in always the same clone, direct comparability is ensured, which would rot be the case in a direct comparison of clinical samples or of different HIV clones.\n(§2) That system is used as a transient DNA transfection system for tests:\n(§3) Instead of the strains mentioned, there may be used any human T4-positive cells, such as the HeLa T4 cells, deposited under that name by Richard Axel and Paul Maddon in \"NIH AIDS reference and reagent program\" and obtainable via that source."}, "[2]": {"system": "46I/47V/50V (VX478) strain", "test": "Transient DNA transfection assay, strain 46I/47V/50V (VX478)", "type": "cell-based, HIV-1", "details": "1 nM", "source_text": "as §1, §2, §3"}},
  "data": [
    {"smiles": "COC(=O)N[C@H](C(=O)N[C@@H](Cc1ccccc1)[C@@H](O)CN(Cc1ccc(-c2ccccn2)cc1)NC(=O)[C@@H](NC(=O)OC)C(C)(C)C)C(C)(C)C", "note": "[Example 46, 1-[4-(Pyridin-2-yl)-phenyl]-4(S)-hydroxy-5(S)-2,5-bis[N-(N-methoxycarbonyl-(L)-tert-leucyl)amino]-6-phenyl-2-azahexane]", "values": [
      {"measurement": "activity against a resistant variant (45I,76F strain) compared with saquinavir, indinavir, ritonavir", "setting": "[1]", "value": "comparable with saquinavir and better than that of indinavir (Merck & Co., Inc., see below) or ritonavir"},
      {"measurement": "activity against strain 46I/47V/50V (VX478) compared with saquinavir, ritonavir and indinavir", "setting": "[2]", "value": "more potent (not quantified) than that of saquinavir, ritonavir and indinavir"}
    ]}
  ]
}
